# Reference: ChEMBL document CHEMBL1201862, “PubChem BioAssay data set” (2004)
#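 Method: 48-hour compound exposure of cells in 96-well plates, five concentrations, linear interpolation of endpoints. GI50: concentration for 50% inhibition of growth.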 Activity calls are given as the source filed them. Cut-off read from the data, not from the text of the source: active = GI50 up to about 1.1 µM and inactive = higher.
# Assays:
# Test in all cases: growth of human tumour cells (NCI), 48 h
# [1] = tested on: DMS-114
# [2] = tested on: DMS-273
# [3] = tested on: HOP-18
# [4] = tested on: KM-20L2
# [5] = tested on: LXFL 529
# [6] = tested on: RXF 631
# [7] = tested on: SNB-78
# [8] = tested on: DLD-1
# [9] = tested on: XF498
SMILES,GI50 [1],GI50 [2],GI50 [3],GI50 [4],GI50 [5],GI50 [6],GI50 [7],GI50 [8],GI50 [9]
O=C1C2C3SC(c4cc5ccccc5cc43)C2C(=O)N1c1ccccc1 (stereo not given),> 100 µM (inactive),> 100 µM (inactive),> 100 µM (inactive),> 100 µM (inactive),94.6 µM (inactive),> 100 µM (inactive),84.5 µM (inactive),,
CC(C)(C)C(=O)OC12/C(=N/O)CCCCCC1c1ccccc12 (stereo not given),19.4 µM (inactive),17.9 µM (inactive),18.8 µM (inactive),20.2 µM (inactive),16.3 µM (inactive),,25.1 µM (inactive),19.5 µM (inactive),
CCc1c(CNc2ccc(C(=O)NC(CC(=O)O)C(=O)O)cc2)ccc2nc(N)nc(N)c12 (stereo not given),< 0.0262 µM (active),< 0.0202 µM (active),> 61.9 µM (inactive),0.451 µM (active),,,> 60.3 µM (inactive),< 0.0223 µM (active),> 100 µM (inactive)
COc1ccc(C(=O)C(C(=O)C(=O)Nc2ccc(Cl)c(Cl)c2)c2ccc(OC)cc2)cc1 (stereo not given),76.9 µM (inactive),> 100 µM (inactive),> 100 µM (inactive),> 100 µM (inactive),> 100 µM (inactive),,> 100 µM (inactive),> 100 µM (inactive),> 100 µM (inactive)
Cc1nc(N)sc1C(=O)/C=C/c1ccc(/C=C/C(=O)c2sc(NC(=O)CCCCCCCCC(=O)Nc3nc(C)c(C(=O)/C=C/c4ccc(/C=C/C(=O)c5sc(N)nc5C)cc4)s3)nc2C)cc1,> 100 µM (inactive),> 100 µM (inactive),> 100 µM (inactive),> 100 µM (inactive),> 100 µM (inactive),> 100 µM (inactive),58.5 µM (inactive),> 100 µM (inactive),> 100 µM (inactive)
COc1ccc(N2C(=O)/C(=C/c3ccc(N(CCC#N)CCC#N)cc3C)N=C2/C=C\c2ccccc2)cc1,23.9 µM (inactive),,> 100 µM (inactive),4.73 µM (inactive),8.43 µM (inactive),> 100 µM (inactive),> 100 µM (inactive),> 100 µM (inactive),
COc1cc(C2(C)SCCCS2)c(I)c(OC)c1OC,> 100 µM (inactive),> 100 µM (inactive),> 100 µM (inactive),> 100 µM (inactive),> 100 µM (inactive),> 100 µM (inactive),> 100 µM (inactive),> 100 µM (inactive),> 100 µM (inactive)
CC(=O)OC1C(CCl)OC(N=[N+]=[N-])C(OC(C)=O)C1OC(C)=O (stereo not given),> 100 µM (inactive),> 100 µM (inactive),,> 100 µM (inactive),> 10 µM (inactive),> 100 µM (inactive),,> 100 µM (inactive),> 100 µM (inactive)
O=C1CCN2C(=Nc3cccc4cccc2c34)N1,> 100 µM (inactive),> 100 µM (inactive),,> 100 µM (inactive),> 100 µM (inactive),,> 100 µM (inactive),,> 100 µM (inactive)
CP(C)C.[Ag][I],73.8 µM (inactive),> 100 µM (inactive),62.8 µM (inactive),> 100 µM (inactive),16 µM (inactive),24.3 µM (inactive),28.4 µM (inactive),> 100 µM (inactive),15 µM (inactive)
CCOC(=O)C1=C(O)C(=O)c2ccsc2C1=O,> 100 µM (inactive),> 100 µM (inactive),> 100 µM (inactive),> 100 µM (inactive),,,> 100 µM (inactive),> 100 µM (inactive),
Cc1ccc(C2=Nc3ccccc3SC(c3cccc4c3OCO4)C2)cc1 (stereo not given),,19.7 µM (inactive),13.5 µM (inactive),21.3 µM (inactive),15 µM (inactive),,,27.9 µM (inactive),15.5 µM (inactive)
CCOC(=O)C(NO)C(Sc1ccccc1)c1ccc(OC)cc1 (stereo not given),64.7 µM (inactive),> 100 µM (inactive),> 100 µM (inactive),> 100 µM (inactive),> 100 µM (inactive),,> 100 µM (inactive),72.9 µM (inactive),31 µM (inactive)
Cc1cc(NS(=O)(=O)c2ccc(NC(=O)c3ccc(Cl)c4c(Nc5ccc(S(=O)(=O)N=C(N)N)cc5)c5ccccc5nc34)cc2)no1,62.4 µM (inactive),,,> 100 µM (inactive),31.8 µM (inactive),,41.9 µM (inactive),> 100 µM (inactive),17.6 µM (inactive)
COc1cc(N)c2[nH]c3c(C)ccc(C)c3c2c1,> 100 µM (inactive),> 100 µM (inactive),,,,,> 100 µM (inactive),> 100 µM (inactive),> 100 µM (inactive)
O=C(O)C1(c2ccccc2)CCCNCC1 (stereo not given),> 100 µM (inactive),> 100 µM (inactive),> 100 µM (inactive),> 100 µM (inactive),> 100 µM (inactive),> 100 µM (inactive),> 100 µM (inactive),> 100 µM (inactive),
Cc1ccc(C(O)(c2ccc(C)cc2)c2ccccn2)cc1,> 100 µM (inactive),> 100 µM (inactive),> 100 µM (inactive),> 100 µM (inactive),,> 100 µM (inactive),> 100 µM (inactive),> 100 µM (inactive),
COC(=O)/C(=N\NC(=S)NN)C(C(=O)C(=O)Nc1ccccc1C(N)=O)c1nc2ccccc2nc1O (stereo not given),> 100 µM (inactive),> 100 µM (inactive),> 100 µM (inactive),> 100 µM (inactive),> 100 µM (inactive),> 100 µM (inactive),> 100 µM (inactive),,> 100 µM (inactive)
O=C(O)c1nccnc1C(=O)O,> 100 µM (inactive),> 100 µM (inactive),,> 100 µM (inactive),> 100 µM (inactive),> 100 µM (inactive),,> 100 µM (inactive),> 100 µM (inactive)
COC(=O)C1=C(C(=O)OC)C2(C)OC1C(=O)C21CC1 (stereo not given),20.4 µM (inactive),17.7 µM (inactive),,23.7 µM (inactive),19.5 µM (inactive),17.1 µM (inactive),,19.1 µM (inactive),13.6 µM (inactive)
OCn1nc2c(C3OCCO3)cc3ccccc3n2c1=S,> 100 µM (inactive),> 100 µM (inactive),> 100 µM (inactive),> 100 µM (inactive),> 100 µM (inactive),> 100 µM (inactive),> 100 µM (inactive),> 100 µM (inactive),> 100 µM (inactive)
COc1cccc(/C=C(/C(=O)O)c2cc(OC)c(OC)c(OC)c2)c1,> 100 µM (inactive),> 100 µM (inactive),> 100 µM (inactive),> 100 µM (inactive),> 100 µM (inactive),> 100 µM (inactive),> 100 µM (inactive),> 100 µM (inactive),37.8 µM (inactive)
COc1ccc2[nH]cc(CCNC(C)=O)c2c1 [MELATONIN],> 100 µM (inactive),> 100 µM (inactive),> 100 µM (inactive),> 100 µM (inactive),> 100 µM (inactive),,> 100 µM (inactive),> 100 µM (inactive),> 100 µM (inactive)
